# According to US9809623B2, “α4β7 peptide monomer and dimer antagonists” (Protagonist Therapeutics, Inc., priority 2014, dated 2017):
# Numbered stars: 1 amine (or outer) side, 2 acyl side, 3 side chain; on linkers, the order of the positions; unused ones are H or OH. Bridge positions count the residues as written; N and C are the ends. Square brackets hold non-standard residues; d marks the D form. Peptide text beside a SMILES is read from it. I, II: the chains in the order shown. ξ: configuration not given here. Phe(4-tBu) = CC(C)(C)c1ccc(C[C@H](N)C(=O)O)cc1; Diglycolyl = O=C(COCC(=O)[*:2])[*:1]; NMeR = CN[C@@H](CCCNC(=N)N)C(=O)O; β3hE = N[C@@H](CCC(=O)O)CC(=O)O; Thr(3ξ) = CC(O)[C@H](N)C(=O)O; Pen = CC(C)(S)[C@H](N)C(=O)O
# Key:
# FIG. 5 = test: FIG. 5
# From the text: Table printed on a drawing sheet, FIG. 5
# Footnotes: SIF- simulated intestinal fluid (porcine) / RIW- rat intestinal wash / HIF- human intestinal fluid / CW- colonic wash (rat) / IMH- intestinal mucosal homogenate (rat) / CMG- colonic mucosal homogenate (rat) / SGF- simulated gastric fluid (porcine) / Hu S9- human intestinal S9 fraction / RL S9- rat liver S9
# First reader's note: The first column is printed empty in all rows, so no substance name appears on the sheet; the column head reads CMH while the legend prints CMG.
# αLβ2 = αLβ2 (Homo sapiens, UniProt P05107+P20701); test: PBMC memory T cell adhesion to ICAM-1; type: cell-based; set-up: endogenous in cells; conditions: memory T cells isolated from human PBMC donors; read-out: IC50 (nM), memory T cells, Ligand ICAM-1
# Chain of αLβ2 (P20701 26-1170): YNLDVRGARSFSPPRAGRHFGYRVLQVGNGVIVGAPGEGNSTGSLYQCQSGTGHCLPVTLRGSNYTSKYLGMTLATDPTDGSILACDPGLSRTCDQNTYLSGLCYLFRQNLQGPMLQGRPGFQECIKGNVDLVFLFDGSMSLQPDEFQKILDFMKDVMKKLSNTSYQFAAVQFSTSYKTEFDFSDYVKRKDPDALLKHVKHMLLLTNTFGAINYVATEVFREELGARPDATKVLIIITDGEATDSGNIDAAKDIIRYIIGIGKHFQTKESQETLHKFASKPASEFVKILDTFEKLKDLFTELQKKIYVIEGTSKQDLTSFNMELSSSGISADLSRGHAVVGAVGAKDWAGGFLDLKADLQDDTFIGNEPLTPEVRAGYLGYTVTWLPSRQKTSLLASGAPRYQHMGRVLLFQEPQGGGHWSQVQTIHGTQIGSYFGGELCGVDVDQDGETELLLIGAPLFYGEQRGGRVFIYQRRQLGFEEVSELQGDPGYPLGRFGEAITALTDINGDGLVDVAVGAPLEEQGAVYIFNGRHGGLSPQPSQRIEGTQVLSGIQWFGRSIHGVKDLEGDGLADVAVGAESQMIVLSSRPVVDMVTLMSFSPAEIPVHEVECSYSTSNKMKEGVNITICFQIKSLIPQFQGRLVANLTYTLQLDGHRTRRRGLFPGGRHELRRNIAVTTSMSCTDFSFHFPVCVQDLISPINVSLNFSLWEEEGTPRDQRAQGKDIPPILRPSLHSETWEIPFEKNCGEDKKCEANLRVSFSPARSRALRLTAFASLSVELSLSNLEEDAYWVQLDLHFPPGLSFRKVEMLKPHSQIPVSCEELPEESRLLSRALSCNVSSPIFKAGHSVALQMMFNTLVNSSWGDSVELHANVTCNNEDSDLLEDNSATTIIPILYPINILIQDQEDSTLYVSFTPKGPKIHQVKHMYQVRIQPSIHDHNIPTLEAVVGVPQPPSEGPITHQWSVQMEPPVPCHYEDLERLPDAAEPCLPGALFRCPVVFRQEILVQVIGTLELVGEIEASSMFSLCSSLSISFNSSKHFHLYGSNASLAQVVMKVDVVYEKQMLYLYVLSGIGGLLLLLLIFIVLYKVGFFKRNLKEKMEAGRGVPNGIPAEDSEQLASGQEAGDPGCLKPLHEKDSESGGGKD
# Chain of αLβ2 (P05107 23-769): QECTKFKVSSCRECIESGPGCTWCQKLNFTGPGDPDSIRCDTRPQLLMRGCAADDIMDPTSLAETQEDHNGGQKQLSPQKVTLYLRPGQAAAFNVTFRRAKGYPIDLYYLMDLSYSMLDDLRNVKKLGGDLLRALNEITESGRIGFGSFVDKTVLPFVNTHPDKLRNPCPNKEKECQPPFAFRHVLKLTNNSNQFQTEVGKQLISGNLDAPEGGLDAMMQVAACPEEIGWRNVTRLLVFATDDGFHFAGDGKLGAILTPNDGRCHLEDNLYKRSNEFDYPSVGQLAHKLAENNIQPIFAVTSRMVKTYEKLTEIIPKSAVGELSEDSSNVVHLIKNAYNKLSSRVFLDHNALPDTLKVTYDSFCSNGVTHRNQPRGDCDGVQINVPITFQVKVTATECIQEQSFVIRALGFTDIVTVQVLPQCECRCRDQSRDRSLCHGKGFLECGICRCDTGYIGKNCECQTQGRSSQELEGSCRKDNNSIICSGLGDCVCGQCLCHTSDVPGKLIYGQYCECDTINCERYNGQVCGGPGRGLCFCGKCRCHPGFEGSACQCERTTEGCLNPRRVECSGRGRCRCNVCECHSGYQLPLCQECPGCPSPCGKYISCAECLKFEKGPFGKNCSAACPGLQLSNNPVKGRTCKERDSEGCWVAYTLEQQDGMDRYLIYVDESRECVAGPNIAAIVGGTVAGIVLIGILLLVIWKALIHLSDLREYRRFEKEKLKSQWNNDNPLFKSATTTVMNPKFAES
structure (smiles),measurement,setting,value
"CC(=O)N[C@@H]1C(=O)N(C)[C@@H](CCCNC(=N)N)C(=O)N[C@@H](CO)C(=O)N[C@@H](CC(=O)O)C(=O)N[C@@H](C(C)O)C(=O)N[C@@H](CC(C)C)C(=O)N[C@H](C(=O)N[C@@H](Cc2ccc(C(C)(C)C)cc2)C(=O)N[C@@H](CCC(=O)O)CC(=O)N[C@H](CCCCNC(=O)COCC(=O)NCCCC[C@@H](NC(=O)C[C@H](CCC(=O)O)NC(=O)[C@H](Cc2ccc(C(C)(C)C)cc2)NC(=O)[C@H]2NC(=O)[C@H](CC(C)C)NC(=O)[C@H](C(C)O)NC(=O)[C@H](CC(=O)O)NC(=O)[C@H](CO)NC(=O)[C@H](CCCNC(=N)N)N(C)C(=O)[C@@H](NC(C)=O)C(C)(C)SSC2(C)C)C(N)=O)C(N)=O)C(C)(C)SSC1(C)C (stereo partly drawn) [Peptide X, [Ac-Pen-(N-Me-Arg)-Ser-Asp-Thr-Leu-Pen-(Phe(4-tBu))-(β-homoGlu)-(D-Lys)]2-DIG] (I: Ac-[Pen][NMeR]SD[Thr(3ξ)]L[Pen][Phe(4-tBu)][β3hE][dK]-NH2 / II: Ac-[Pen][NMeR]SD[Thr(3ξ)]L[Pen][Phe(4-tBu)][β3hE][dK]-NH2; disulfide I:1-I:7, II:1-II:7; linker I:10-II:10 via Diglycolyl)",Intestinal half-life | CMH,FIG. 5,>6 h
same,Intestinal half-life | CW,FIG. 5,>6 h
same,Intestinal half-life | HIF,FIG. 5,>24 h
same,Intestinal half-life | IMH,FIG. 5,>6 h
same,Intestinal half-life | SIF,FIG. 5,11 h
same,Metabolism | Hu S9,FIG. 5,>6 h
same,Metabolism | RL S9,FIG. 5,>6 h
same,IC50,αLβ2,> 100000 nM
